Assay results published in patent publication US8389549B2, “Substituted pyridines useful for treating pain” (Purdue Pharma L.P., priority 2007, dated 2013).
Values after ≈ are worked out from the molar mass of the structure shown. Like-named read-outs stand apart in the source and are kept apart here. One block for each molecule: values may come before it.

Tests used:
[1] = Solubility of diol compounds in aqueous solution; format: physicochemical
human TRPV1 [2] = molecular target: T1, human TRPV1 (Homo sapiens, UniProt Q8NER1); assay: Capsaicin-based assay (Fluo-4 calcium fluorescence, TRPV1/CHO cells); format: cell-based; set-up: expressed in transfected cells
T1 sequence (Q8NER1 whole entry): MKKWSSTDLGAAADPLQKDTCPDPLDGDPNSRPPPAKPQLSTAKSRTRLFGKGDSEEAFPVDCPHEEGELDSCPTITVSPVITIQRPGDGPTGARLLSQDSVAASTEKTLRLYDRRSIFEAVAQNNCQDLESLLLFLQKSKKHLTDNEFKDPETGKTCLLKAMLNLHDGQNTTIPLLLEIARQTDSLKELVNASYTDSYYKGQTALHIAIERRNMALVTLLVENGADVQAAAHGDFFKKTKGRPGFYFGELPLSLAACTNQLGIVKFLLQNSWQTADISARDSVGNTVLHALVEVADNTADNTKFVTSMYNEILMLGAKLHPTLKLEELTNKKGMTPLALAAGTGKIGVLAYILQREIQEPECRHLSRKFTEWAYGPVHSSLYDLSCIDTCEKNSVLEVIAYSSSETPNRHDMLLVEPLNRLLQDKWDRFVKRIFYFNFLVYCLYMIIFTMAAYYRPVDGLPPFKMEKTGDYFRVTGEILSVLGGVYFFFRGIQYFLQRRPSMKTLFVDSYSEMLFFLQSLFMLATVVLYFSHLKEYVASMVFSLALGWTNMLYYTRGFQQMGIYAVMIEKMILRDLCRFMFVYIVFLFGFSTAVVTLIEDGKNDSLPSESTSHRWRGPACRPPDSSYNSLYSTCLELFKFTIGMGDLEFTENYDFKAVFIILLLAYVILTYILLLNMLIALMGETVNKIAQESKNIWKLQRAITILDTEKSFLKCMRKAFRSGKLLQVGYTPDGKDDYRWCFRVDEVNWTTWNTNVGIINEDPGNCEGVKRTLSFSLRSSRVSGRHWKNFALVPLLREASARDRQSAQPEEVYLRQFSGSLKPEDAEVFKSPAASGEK
Description: One day prior to assay, TRPV1/CHO cells are seeded in 96-well clear-bottom black plates (20,000 cells/well) in growth media. On the day of the experiment, the cells are washed with 0.2 ml 1× Hank's Balanced Salt Solution (Life Technologies) containing 1.6 mM CaCl2 and 20 mM HEPES, pH 7.4 (“wash buffer”). Subsequently, the cells are loaded by incubation in 0.1 ml of wash buffer containing Fluo-4 at 3 µM final concentration. After 1 hour, the cells are washed twice with 0.2 ml wash buffer and resuspended in 0.1 ml wash buffer. The plates are then transferred to a Fluorescence Imaging Plate Reader (Molecular Devices). Fluorescence intensity is monitored for 15 seconds to establish a baseline. Subsequently, test compounds diluted in assay buffer (1× Hank's Balanced Salt Solution containing 1 mM CaCl2 and 20 mM HEPES, pH 7.4) containing 1% DMSO are added to the cell plate and fluorescence is monitored for 2 minutes. […] Human TRPV1 is then activated by the addition of 50 μL capsaicin (100 nM final concentration) and plates incubated for an additional 3 min. Data are collected over the entire time course and analyzed using Excel and the curve-fitting Formula GraphPad Prism.

human TRPV1 [3] = molecular target: T1, human TRPV1; assay: pH-based assay (Fura-2 AM Ca2+ response to low pH, TRPV1/CHO cells)
Description: For this Protocol, a Chinese Hamster Ovary cell line (CHO) that constitutively expresses human TRPV1 is used (TRPV1/CHO cells).
TRPV1/CHO cells are seeded in the 96-well clear-bottom black-wall plate (Nunc) at densities of 1-2×10^4 cells/well and grown in 100 μL of culture medium (alpha-MEM supplemented with 10% FBS, 20 mM HEPES, 1 mg/mL geneticin and 1% antibiotic-antimycotic mixed stock solution) for 1-2 days before the experiment.
(2) The 96-well plate is incubated at 37° C. for 45 min.
(3) The loading buffer is removed from each well. […] The wells are then refilled with 80 μL of measuring buffer.
(4) After an incubation at 4° C. for 15 min, the 96-well plate is transferred to FDSS-3000 (Hamamatsu photonics, Japan).
(5) The Fura-2 fluorescent intensity is monitored at a wavelength of 340 nm and at 380 nm, respectively, at a rate of 0.5 Hz for a total of 240 seconds. After 16 time points (32 sec) of baseline detection, 20 μL of agonist solution is added to each well. […]
(6) Fluorescence intensity ratio refers to the fluorescence intensity at 340 nm over the fluorescence intensity at 380 nm at a particular time point. […]
(7) Maximal signal ratios from each well are calculated as output data using the FDSS-3000 analysis program. Data are analyzed using Excel (Microsoft) and XLfit (idbs) software. […]
(6) Fura-2 fluorescent intensity is monitored as described in 2.2.(5) of this Protocol. […]

[4] = pH 1.2, read-out: Solubility (μM) pH: 1.2
[5] = pH 6.8, aqueous buffer, read-out: Solubility (μM) pH: 6.8
[6] = TRPV1/CHO cells, capsaicin 100 nM final concentration, read-out: Potency, IC50(nM) Capsaicin assay

Structure (SMILES): O=C(Nc1ccc(C(F)(F)F)cc1)C1=CCN(c2ncc([C@@H](O)CO)cc2F)CC1 [Compound B14]
IC50 (human TRPV1 [2]): 29.4 ± 6.3 nM
IC50 (human TRPV1 [3]): 14.7 ± 1.01 nM

Structure (SMILES): O=C(Nc1ccc(C(F)(F)F)cc1)C1=CCN(c2ncc([C@H](O)CO)cc2F)CC1 [Compound A14]
solubility [1, 4]: > 50 µM
solubility [1, 5]: 19 µM (≈ 8.08 µg/mL)
IC50 (human TRPV1 [2]): 23.8 ± 6.2 nM
IC50 (human TRPV1 [3]): 9.5 ± 2.5 nM

Structure (SMILES): O=C(Nc1ccc(C(F)(F)F)cn1)C1=CCN(c2ncc([C@H](O)CO)cc2F)CC1 [Compound E2]
solubility [1, 4]: > 50 µM
solubility [1, 5]: 25 µM (≈ 10.7 µg/mL)
IC50 (human TRPV1 [2]; [6]): 45.9 ± 4.2 nM

Next, values leading:

solubility [1, 4]: 46 µM (≈ 19.9 µg/mL)
solubility [1, 5]: 1 µM (≈ 0.432 µg/mL)
IC50 (human TRPV1 [2]; [6]): 35.6 ± 5.1 nM
Structure (SMILES): O=C(Nc1nc2ccc(F)cc2s1)C1=CCN(c2ncc([C@H](O)CO)cc2F)CC1 [Compound I5, (S)-1-(5-(1,2-dihydroxyethyl)-3-fluoropyridin-2-yl)-N-(6-fluorobenzo[d]thiazol-2-yl)-1,2,3,6-tetrahydropyridine-4-carboxamide]

solubility [1, 4]: > 50 µM
solubility [1, 5]: 21 µM (≈ 8.95 µg/mL)
IC50 (human TRPV1 [2]; [6]): 109 ± 25.5 nM
Structure (SMILES): O=C(Nc1ccc(C(F)(F)F)cn1)C1=CCN(c2ncc([C@@H](O)CO)cc2F)CC1 [Compound F2]
